Results published in article PMC11876601 (Molecular Systems Biology, 2025).
Read-outs that look alike come from different tables or passages of the source.

Test system: AsPC-1 cells
Assay: Drug combination viability screen (ATPlite, 72 h);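 for AUC: area under vehicle-normalized viability curve scaled 0 to 100 percent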;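 for Curve bottom: fraction of vehicle control viability from four-parameter log-logistic fit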
Type: cell-based, human
Parameters: key to AUC: AUC of dose-response curve; AUC∆ = AUChypothetical − AUCexperimental; Curve top / Curve bottom / Curve effect size: scale not given here
Details: for EC50: Homo sapiens; for Library drug only (ratio): cell viability (library drug/vehicle); for Library drug + GEM low (ratio) / Library drug + GEM high (ratio): cell viability vs vehicle; for Bliss_Library drug + GEM low (ratio) / Bliss_Library drug + GEM high (ratio): hypothetical viability, Bliss model
Protocol: Cell viability was assessed by measuring ATP levels to indicate metabolic activity.
Afterward, small amounts were transferred to 384-well intermediate plates (Greiner Bio-One GmbH, Germany). […] For drug combination screening, 1000 to 5000 cells were seeded into 384-well plates (CulturPlate™, Perkin Elmer, MA, USA) using a Multidrop™ Combi Reagent Dispenser (Thermo Scientific, MA, USA) in 50 µl medium per well 24 h prior to drug treatment (seeding densities see Appendix Table S1). […] The final DMSO concentration in each well was 0.2%. […] Eight wells per plate without library drug served as negative controls, and sixteen wells per plate containing 5 µM Staurosporine served as positive controls. Control plates not containing any drug were used to correct for incubation effects, and data quality was assessed by calculation of Z-prime of positive and negative controls according to1 Z-prime=1−3SDpos+3SDneg/[…] where SD is the standard deviation. […] Dose–response curves from the experimental and hypothetical data were compared, and shifts in AUC were used to describe combination effects (AUC∆ = AUChypothetical − AUCexperimental). […] Only combinations with R^2 > 0.8 in both conditions were considered in the synergy analysis.

[1] = ASPC1, read-out: pEC50 (converted)
[2] = AsPC-1, GEM high_Bliss (hypothetical data)
[3] = AsPC-1, GEM low_Bliss (hypothetical data)
[4] = AsPC-1, library drug 123.46 nM + GEM 10 nM
[5] = AsPC-1, library drug 123.46 nM + GEM 30 nM
[6] = AsPC-1, library drug 370.37 nM + GEM 10 nM
[7] = AsPC-1, library drug 370.37 nM + GEM 30 nM
[8] = AsPC-1, library drug 1111.11 nM + GEM 10 nM
[9] = AsPC-1, library drug 1111.11 nM + GEM 30 nM
[10] = AsPC-1, library drug 3333.33 nM + GEM 10 nM
[11] = AsPC-1, library drug 3333.33 nM + GEM 30 nM
[12] = AsPC-1, library drug 10000 nM + GEM 10 nM
[13] = AsPC-1, library drug 10000 nM + GEM 30 nM

Nc1ccn([C@@H]2O[C@H](CO)[C@@H](O)C2(F)F)c(=O)n1 [GEM, Gemcitabine]
Reponse (AsPC-1, R1, 13.72 nM): 1567840
Reponse (AsPC-1, R1, 41.15 nM): 1226120
Reponse (AsPC-1, R1, 123.46 nM): 1025760
Reponse (AsPC-1, R1, 370.37 nM): 921880
Reponse (AsPC-1, R1, 1111.11 nM): 872680
Reponse (AsPC-1, R1, 3333.33 nM): 849760
Reponse (AsPC-1, R1, 10000 nM): 784080
Reponse (AsPC-1, R2, 13.72 nM): 1654800
Reponse (AsPC-1, R2, 41.15 nM): 1220360
Reponse (AsPC-1, R2, 123.46 nM): 984000
Reponse (AsPC-1, R2, 370.37 nM): 972200
Reponse (AsPC-1, R2, 1111.11 nM): 963400
Reponse (AsPC-1, R2, 10000 nM): 773560
AUC (AsPC-1, GEM curve fit): 70.34
Curve bottom (AsPC-1, GEM curve fit): 0.46
Curve effect size (AsPC-1, GEM curve fit): 0.55
Curve slope (AsPC-1, GEM curve fit): 1.15
Curve top (AsPC-1, GEM curve fit): 1.04
GEM low only (raw) (AsPC-1, luminescence signal, plate mean, GEM 10 nM): 1700020
GEM high only (raw) (AsPC-1, luminescence signal, plate mean, GEM 30 nM): 1564215
EC50 (ASPC1, read-out: EC50,GEM): ≥ 0.01 µM
EC50 (ASPC1, read-out: EC50): 0.0271 µM
EC50 [1]: 0.0269 µM

CCN1CCN(Cc2ccc(Nc3ncc(F)c(-c4cc(F)c5nc(C)n(C(C)C)c5c4)n3)nc2)CC1 [Abemaciclib]
AUC (AsPC-1, GEM high): 87.77%
Curve bottom (AsPC-1, GEM high): 0.63
Curve effect size (AsPC-1, GEM high): 0.23
Curve slope (AsPC-1, GEM high): 0.52
Curve top (AsPC-1, GEM high): 0.85
AUC [2]: 82.66%
Curve bottom [2]: -0.27
Curve effect size [2]: 0.57
Curve slope [2]: 0.36
Curve top [2]: 0.8
AUC (AsPC-1, GEM low): 89.92%
Curve bottom (AsPC-1, GEM low): 0.62
Curve effect size (AsPC-1, GEM low): 0.28
Curve slope (AsPC-1, GEM low): 1.21
Curve top (AsPC-1, GEM low): 0.86
AUC [3]: 82.59%
Curve bottom [3]: -0.23
Curve effect size [3]: 0.57
Curve slope [3]: 0.36
Curve top [3]: 0.87
Library drug only (ratio) (AsPC-1, library drug 123.46 nM): 0.76
Library drug only (ratio) (AsPC-1, library drug 370.37 nM): 0.72
Library drug only (ratio) (AsPC-1, library drug 1111.11 nM): 0.63
Library drug only (ratio) (AsPC-1, library drug 3333.33 nM): 0.64
Library drug only (ratio) (AsPC-1, library drug 10000 nM): 0.33
Library drug + GEM low (ratio) [4]: 0.80
Library drug + GEM high (ratio) [5]: 0.73
Library drug + GEM low (ratio) [6]: 0.68
Library drug + GEM high (ratio) [7]: 0.65
Library drug + GEM low (ratio) [8]: 0.63
Library drug + GEM high (ratio) [9]: 0.65
Library drug + GEM low (ratio) [10]: 0.67
Library drug + GEM high (ratio) [11]: 0.67
Library drug + GEM low (ratio) [12]: 0.59
Library drug + GEM high (ratio) [13]: 0.64
Bliss_Library drug + GEM low (ratio) [4]: 0.69
Bliss_Library drug + GEM high (ratio) [5]: 0.63
Bliss_Library drug + GEM low (ratio) [6]: 0.65
Bliss_Library drug + GEM high (ratio) [7]: 0.60
Bliss_Library drug + GEM low (ratio) [8]: 0.57
Bliss_Library drug + GEM high (ratio) [9]: 0.52
Bliss_Library drug + GEM low (ratio) [10]: 0.58
Bliss_Library drug + GEM high (ratio) [11]: 0.53
Bliss_Library drug + GEM low (ratio) [12]: 0.30
Bliss_Library drug + GEM high (ratio) [13]: 0.27
Library drug only (raw) (AsPC-1, luminescence signal, library drug 123.46 nM): 1429160
Library drug + GEM low (raw) (AsPC-1, luminescence signal, library drug 123.46 nM + GEM 10 nM): 1506080
Library drug + GEM high (raw) (AsPC-1, luminescence signal, library drug 123.46 nM + GEM 30 nM): 1369120
Library drug only (raw) (AsPC-1, luminescence signal, library drug 370.37 nM): 1356440
Library drug + GEM low (raw) (AsPC-1, luminescence signal, library drug 370.37 nM + GEM 10 nM): 1276520
Library drug + GEM high (raw) (AsPC-1, luminescence signal, library drug 370.37 nM + GEM 30 nM): 1223760
Library drug only (raw) (AsPC-1, luminescence signal, library drug 1111.11 nM): 1177560
Library drug + GEM low (raw) (AsPC-1, luminescence signal, library drug 1111.11 nM + GEM 10 nM): 1187000
Library drug + GEM high (raw) (AsPC-1, luminescence signal, library drug 1111.11 nM + GEM 30 nM): 1214720
Library drug only (raw) (AsPC-1, luminescence signal, library drug 3333.33 nM): 1196040
Library drug + GEM low (raw) (AsPC-1, luminescence signal, library drug 3333.33 nM + GEM 10 nM): 1253360
Library drug + GEM high (raw) (AsPC-1, luminescence signal, library drug 3333.33 nM + GEM 30 nM): 1251960
Library drug only (raw) (AsPC-1, luminescence signal, library drug 10000 nM): 618520
Library drug + GEM low (raw) (AsPC-1, luminescence signal, library drug 10000 nM + GEM 10 nM): 1109040
Library drug + GEM high (raw) (AsPC-1, luminescence signal, library drug 10000 nM + GEM 30 nM): 1201080
AUC (AsPC-1, no GEM (single drug)): 82.59%
Curve bottom (AsPC-1, no GEM (single drug)): -0.27
Curve effect size (AsPC-1, no GEM (single drug)): 0.57
Curve slope (AsPC-1, no GEM (single drug)): 0.36
Curve top (AsPC-1, no GEM (single drug)): 0.97
EC50 (ASPC1, read-out: EC50): 16.5 µM
EC50 [1]: 16.6 µM
